The text below walks through data of BindingDB's records for patent US10882866 (Boehringer Ingelheim International GmbH, 2021).

The target of this assay is T1, E3 ubiquitin-protein ligase Mdm2 [23-117] (Human, UniProt Q00987).
T1 construct: 23-117
As to the kind of experiment: Inhibition AlphaScreen Assay. How it is done: A mix consisting of 20 nM GST-MDM2 protein (aa 23-117) and 20 nM biotinylated p53 wt peptide (encompassing aa 16-27 of wt human p53, amino acid sequence QETFSDLWKLLP-Ttds-Lys-Biotin, molecular weight 2132.56 g/mol) is prepared in assay buffer (50 mM Tris/HCl pH 7.2; 120 mM NaCl; 0.1% bovine serum albumin (BSA); 5 mM dithiothreitol (DTT); 1 mM ethylenediaminetetraacetic acid (EDTA); 0.01% Tween 20). 30 μL of the mix is added to the compound dilutions and incubated for 15 min at rt while gently shaking the plate at 300 rounds per minute (rpm). Subsequently, 15 μL of premixed AlphaLISA Glutathione Acceptor Beads and AlphaScreen Streptavidin Donor Beads from PerkinElmer (in assay buffer at a concentration of 10 μg/mL each) are added and the samples are incubated for 30 min at rt in the dark (shaking 300 rpm). Afterwards, the signal is measured in a PerkinElmer Envision HTS Multilabel Reader using the AlphaScreen protocol from PerkinElmer.Each plate contains negative controls where biotinylated p53-peptide and GST-MDM2 are left out and replaced by assay buffer. Negative control values are entered as low basis value when using the software GraphPad Prism for calculations.
For orientation: In Alpha technology, singlet oxygen from a donor bead excites a nearby acceptor bead.

The structures appear in SMILES notation.

T1 sequence (Q00987 23-117): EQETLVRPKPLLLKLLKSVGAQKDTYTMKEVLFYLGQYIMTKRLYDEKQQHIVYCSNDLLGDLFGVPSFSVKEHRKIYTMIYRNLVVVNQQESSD

Take `O=C(O)c1ccc2c(c1)nc1n2CC[C@H]2[C@@H]1[C@H](c1cccc(Cl)c1F)[C@]1(C(=O)Nc3cc(Cl)ccc31)N2CC1CC1` [US10882866, Example Ib-171]: half-maximal inhibition (IC50) was put at 10 nM.
